# Test results: patent US20240122878A1 (priority 2021, published 2024)
# Values joined by “and” are separate entries in the source; they are usually repeats but may differ in a detail not shown here. Equal values may be shown once. Read-outs that look alike come from different tables or passages of the source.
# What was measured:
# healthy volunteers = test: Phase 1 study esmethadone-112 concentration-QTc sub-analysis; assay type: in vivo, human
# hERG = hERG (Homo sapiens, UniProt Q12809); test: GLP hERG channel current study of esmethadone; settings: human
# [1] = target: hERG (human ether-à-go-go-related gene) channel current (Homo sapiens, UniProt Q12809); test: GLP hERG channel current study of esmethadone
# [2] = cited from earlier work
# [3] = Phase 1 pharmacokinetics of immediate release esmethadone (Bernstein 2019); assay type: in vivo; settings: human, plasma; 25 mg oral daily dosing ×10 days; read-out: Steady state Cmax
# Procedure: […]. […] Therefore, dose proportionality and linearity after oral administration of each of the three molecules, based on the data from Bernstein 2019 and Foster 2004 are expected. […].
# Steady state Curough concentrations (measured at Day 10) were 142.7, 326.2 and 338.8 ng/ml respectively.
# [4] = Phase 2a study plasma pharmacokinetics; assay type: in vivo, human; settings: for Cmax: human, in vivo, C-QTc population
# Procedure: (§1) Timed PK assessments were performed on Day 1 and after approximately 23 hours post Day 1 dosing, and thus for the exposure-response analysis only the Day 1 ECG data is utilized.
# PK sampling was done on Day 1 at 1 hour pre-dose and 0.5, 1, 2, 4, 6, 8, and 12 hours post-dose. On Day 2 through Day 7, sampling was done 1 hour pre-dose. On Day 8, sampling was done approximately 24 hours after the last dose of study drug (on Day 7). On Day 9, sampling was done approximately 48 hours after the last dose (on Day 7).
# (§2) The geometric mean of the individual Cmax values for patients in each of the active dose groups was determined.
# [5] = tested on: patients with major depressive disorder; test: Phase 2a cardiodynamic ECG evaluation (concentration-QTc and by-time point analysis); assay type: in vivo, human
# Procedure: as §1
# The 12-lead digital ECG equipment was supplied and supported by the central ECG core lab vendor, eResearch Technology, Inc., ERT (Philadelphia, PA). After a supine rest period, ECGs were collected in triplicate at the pre-specific time points indicated within the study protocol and described below.
# Twelve-lead ECGs were to be performed in triplicate approximately 1 minute apart after lying quietly for at least 3 min at: • Screening • Check-in (Day—1) • Day 1: 1 hour pre-dose and 2 hours, 4 hours, 6 hours, and 8 hours post-dose on Day 1 • Day 2: 1 hour pre-dose (corresponding to 23 hours post-dose on Day 1) and 2 hours, 4 hours, 6 hours, and 8 hours post-dose • Days 3-7: 2 hours post-dose • Day 8 • Prior to discharge on Day 9 • End of the observation period (Day 14)
# The QT and RR value for each measured beat were used for HR correction. Three beats were measured on each of the triplicate ECGs at each time point. The mean value from each triplicate tracing was calculated, and then the mean of all available measurements from a nominal time point were used as the patient's reportable value at that time point. • 5. ECG Methodology: Central Laboratory
# [published correction appears in J Pharmacokinet Pharmacodyn. […] J Pharmacokinet Pharmacodyn. […] In all calculations, concentrations in patients who received placebo were set to zero.
# as §2
# An unstructured covariance matrix was specified for the repeated measures at post-dose time points within patient.
# [6] = linear mixed-effects model, C-QTc population
# Sequence of hERG (Q12809 whole entry): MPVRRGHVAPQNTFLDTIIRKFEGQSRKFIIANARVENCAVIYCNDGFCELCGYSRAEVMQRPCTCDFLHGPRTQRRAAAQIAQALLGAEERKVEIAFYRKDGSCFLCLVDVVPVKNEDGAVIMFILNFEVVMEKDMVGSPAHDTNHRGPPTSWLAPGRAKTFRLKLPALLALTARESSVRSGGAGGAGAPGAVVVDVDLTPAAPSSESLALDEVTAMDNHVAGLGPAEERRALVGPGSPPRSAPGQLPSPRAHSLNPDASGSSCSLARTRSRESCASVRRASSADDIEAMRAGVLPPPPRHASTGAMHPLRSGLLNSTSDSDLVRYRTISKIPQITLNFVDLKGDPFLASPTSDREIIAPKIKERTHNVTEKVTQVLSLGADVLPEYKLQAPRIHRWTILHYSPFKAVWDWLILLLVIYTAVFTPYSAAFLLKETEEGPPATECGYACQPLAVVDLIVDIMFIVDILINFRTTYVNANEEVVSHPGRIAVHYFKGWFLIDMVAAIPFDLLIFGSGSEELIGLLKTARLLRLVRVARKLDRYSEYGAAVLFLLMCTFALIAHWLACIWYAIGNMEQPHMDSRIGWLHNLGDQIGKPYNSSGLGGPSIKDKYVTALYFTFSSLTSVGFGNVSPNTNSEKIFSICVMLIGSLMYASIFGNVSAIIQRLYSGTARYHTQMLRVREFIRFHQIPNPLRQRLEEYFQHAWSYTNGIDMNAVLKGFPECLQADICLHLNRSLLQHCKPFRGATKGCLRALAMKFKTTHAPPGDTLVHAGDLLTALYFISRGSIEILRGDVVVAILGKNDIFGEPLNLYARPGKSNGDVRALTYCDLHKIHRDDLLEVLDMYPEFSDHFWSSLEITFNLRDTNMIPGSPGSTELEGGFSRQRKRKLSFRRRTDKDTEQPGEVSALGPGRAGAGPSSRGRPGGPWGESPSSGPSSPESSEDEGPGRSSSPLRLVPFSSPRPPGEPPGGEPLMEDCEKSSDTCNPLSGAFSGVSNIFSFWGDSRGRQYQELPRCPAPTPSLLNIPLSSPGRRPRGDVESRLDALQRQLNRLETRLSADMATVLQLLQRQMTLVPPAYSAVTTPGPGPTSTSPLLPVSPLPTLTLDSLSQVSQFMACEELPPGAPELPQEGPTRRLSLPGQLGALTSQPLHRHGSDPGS
# Sequence of hERG (human ether-à-go-go-related gene) channel current (Q12809 whole entry): as above
structure (smiles),measurement,setting,value
CCC(=O)C(C[C@H](C)N(C)C)(c1ccccc1)c1ccccc1 [esmethadone],Effect on HR,healthy volunteers; Day 10,mild HR slowing
same,"Peak ΔΔQTcF, time-based central tendency analysis","healthy volunteers; Day 10, 25 mg cohort",11.5 ms
same,"Peak ΔΔQTcF, time-based central tendency analysis","healthy volunteers; Day 10, 50 mg QD cohort",26.8 ms
same,"Peak ΔΔQTcF, time-based central tendency analysis","healthy volunteers; Day 10, 75 mg QD cohort",28.8 ms
same,Subjects with pronounced QTcF prolongation (QTcF>60 ms or absolute QTcF>480 ms),"healthy volunteers; categorical analysis, any treatment group",no subjects
same,Effects on the PR or QRS intervals,healthy volunteers; in vivo,no clinically meaningful effects
same,inhibition at 0.3 µM,hERG,27.3 ± 1.6%
same,inhibition at 1 µM,hERG,48.8 ± 3.4%
same,inhibition at 3 μM,hERG,68.6 ± 0.3%
same,inhibition at 10 µM,hERG,88.6 ± 0.7%
same,IC50,[1],1 µM
same,Hill coefficient,[1]; GLP study,0.8
same,Steady state Ctrough concentration (Day 10),[2]; 25 mg,142.7 ng/mL
same,Steady state Ctrough concentration (Day 10),[2]; 50 mg,326.2 ng/mL
same,Steady state Ctrough concentration (Day 10),[2]; 75 mg,338.8 ng/mL
same,Cmax,[3],273 ng/mL
same,Highest PK values on Day 1,[4]; 25 mg (75 mg Day 1),254.5 ng/mL
same,Highest PK values on Day 1,[4]; 50 mg (100 mg Day 1),343.9 ng/mL
same,Cmax,"[4]; 25 mg QD group, Day 1 after 75 mg loading dose",265 ng/mL
same,Cmax,"[4]; 50 mg QD group, Day 1 after 100 mg loading dose",338 ng/mL
same,Model-predicted ΔΔQTcF at 10 ms Threshold concentration,"[5]; 300 ng/ml, linear model, (90% CI)","7.18 (4.36, 10.00) ms"
same,Model-predicted ΔΔQTcF at geometric mean Cmax,"[5]; 25 mg QD group after 75 mg loading dose, 265.2 ng/mL, linear model, (90% CI)","6.7 ms and 6.71 ms and 6.71 (3.94, 9.48) ms"
same,"Maximum LS mean ΔΔQTcF, by-time point analysis","[5]; 25 mg dose group (75 mg loading), Day 2 pre-dose time point",7.7 ms
same,Model-predicted ΔΔQTcF at geometric mean Cmax,"[5]; 50 mg QD group after 100 mg loading dose, 337.8 ng/mL, linear model, (90% CI)","7.7 ms and 7.69 ms and 7.69 (4.80, 10.58) ms"
same,"Maximum LS mean ΔΔQTcF, by-time point analysis","[5]; 50 mg dose group (100 mg loading), Day 1, 8 hour time point",10.9 ms
same,Slope of the concentration-QTc relationship (esmethadone Slope),[5]; [6],0.014 ms per ng/mL
same,Treatment effect-specific intercept (Treatment Effect),[5]; [6],3.11 ms
same,ECG morphology changes,[5]; studied doses,no clinically significant ECG morphology changes
same,Effect on QTc,[5]; studied doses,"modest, dose-dependent increase in QTc"
same,"Effect on heart rate, PR, or QRS",[5]; studied doses,no clinically significant effect
